Measured values published in PMC8980233, “Differentiating the Neuropharmacological Properties of Nicotinic Acetylcholine Receptor-Activating Alkaloids” (Frontiers in Pharmacology, 2022).
“Also recorded” adds a separate entry of the source.

Columns and labels:
[1] = test system: norepinephrine release from hippocampal synaptosomes; test: In vitro [3H]norepinephrine release from crude hippocampal synaptosomes; format: biochemical, rat
Method: In vitro neurotransmitter assays using crude synaptosome preparations were conducted by Gifford Biosciences Limited (Birmingham, UK) based on the previously described protocols ([Clarke and Reuben, 1996]; [Gifford et al., 2000]). In brief, male Sprague Dawley rats (200–225 g) were terminated by cervical dislocation followed by decapitation. The striatums or hippocampi were dissected and homogenized in ice-cold 0.32 M sucrose using a Dounce homogenizer. The homogenates were centrifuged at 100 x g for 5 min to pellet cell debris. The supernatants were collected and centrifuged at 17,000 x g for 10 min at 4°C to pellet crude synaptosomes. The pellets were resuspended in 5 ml Krebs buffer, pH 7.4 (in mM (pH 7.4): 120 NaCl, 3.3 KCl, 1.2 MgSO4, 1.3 CaCl2, 1.2 K2HPO4, 25 HEPES, 11 glucose, 0.01 ascorbic acid, 0.025 pargyline, and 0.1% BSA containing 2 μCi/ml [^3H]norepinephrine for hippocampal synaptosomes or 1 μCi/ml [^3H]dopamine for striatal synaptosomes and incubated for 15 min at 35°C with gentle shaking.
The [^3H]norepinephrine- or [^3H]dopamine-treated crude synaptosomes were loaded onto closed filter chambers containing Whatman® Grade GF/C Glass Microfiber filters (Sigma-Aldrich, Merck KGaA, Darmstadt, Germany) and placed in a superfusion system. Preoxygenated Krebs buffer was perfused through the chambers at a rate of 1 ml/min at 37 °C using an 8-channel peristaltic pump. To ensure an even flow over the synaptosomal bed, trapped air bubbles were removed from the filters prior to collection of the fractions. After a superfusion period of 40 min, three basal fractions (1.5 ml/fraction) were collected first, followed by three fractions (1.5 ml/fraction) containing the test compound. Two additional fractions were collected in the presence of 30 mM KCl to depolarize the synaptosomes. A 0.4-ml aliquot of each fraction was then transferred to a counting plate, and a scintillation cocktail was added to measure the radioactivity using a Wallac® TriLux 1450 MicroBeta counter (PerkinElmer Life Sciences, Zaventem, Belgium). Once all fractions were collected, the filters holding the crude synaptosome samples were removed and dried overnight at room temperature. On the following day, the scintillation cocktail was added and the filters were counted to determine residual radioactivity.
Compound-evoked release of neurotransmitters was calculated by subtracting the counts per minute (CPM) in the two basal fractions collected immediately prior to compound addition from those in the two fractions collected immediately following compound addition. The compound-evoked release was then expressed as a percentage of the basal release from that chamber. Potassium-evoked release was calculated by subtracting the CPM in the fraction immediately prior to KCl addition from the CPM in the […] immediately following potassium addition. Stimulated release was calculated as the percentage of basal release for that chamber. The increase in stimulated release above the baseline (no compound) release for that experimental run was determined, and the latter values were plotted on the graphs. Dose–response curves were determined using non-linear curve fitting in Prism (GraphPad Software, Inc, San Diego, CA, United States). All experiments were repeated at least three times.

[2] = molecular target: T1, α3β4 nAChR (Homo sapiens, UniProt P30926+P32297); test: Radioligand displacement binding assay
T1 sequence (P32297 32-505): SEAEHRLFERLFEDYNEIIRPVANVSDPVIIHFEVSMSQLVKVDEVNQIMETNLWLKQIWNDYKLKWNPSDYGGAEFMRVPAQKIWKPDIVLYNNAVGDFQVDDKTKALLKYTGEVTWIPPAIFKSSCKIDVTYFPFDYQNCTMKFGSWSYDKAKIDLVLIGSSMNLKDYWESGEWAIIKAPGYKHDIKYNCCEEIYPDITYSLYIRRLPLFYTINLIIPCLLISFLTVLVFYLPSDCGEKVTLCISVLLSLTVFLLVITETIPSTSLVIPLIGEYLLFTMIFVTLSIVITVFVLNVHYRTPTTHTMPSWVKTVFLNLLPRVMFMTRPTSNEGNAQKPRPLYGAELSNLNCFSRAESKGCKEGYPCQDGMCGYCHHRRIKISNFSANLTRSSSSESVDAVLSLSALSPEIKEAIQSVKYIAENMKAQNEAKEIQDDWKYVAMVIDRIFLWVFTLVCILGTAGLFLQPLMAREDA
T1 sequence (P30926 22-498): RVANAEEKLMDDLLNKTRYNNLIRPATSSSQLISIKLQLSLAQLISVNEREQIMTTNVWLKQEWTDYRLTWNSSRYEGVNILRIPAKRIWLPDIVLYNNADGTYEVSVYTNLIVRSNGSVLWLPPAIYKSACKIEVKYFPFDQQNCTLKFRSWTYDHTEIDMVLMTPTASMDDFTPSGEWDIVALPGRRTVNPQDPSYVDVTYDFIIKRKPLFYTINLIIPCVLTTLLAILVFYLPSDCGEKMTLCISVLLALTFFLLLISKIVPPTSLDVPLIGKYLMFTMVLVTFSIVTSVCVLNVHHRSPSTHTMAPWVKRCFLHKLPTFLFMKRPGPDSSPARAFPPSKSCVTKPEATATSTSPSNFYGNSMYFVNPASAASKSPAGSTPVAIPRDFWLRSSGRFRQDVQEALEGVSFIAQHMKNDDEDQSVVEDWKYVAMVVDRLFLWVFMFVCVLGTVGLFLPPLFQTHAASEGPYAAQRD
Method: All binding and functional assays for molecular target characterization were conducted by Eurofins Cerep SA (Celle-Lévescault, France) and Eurofins Panlabs Discovery Services Taiwan, Ltd. (New Taipei City, Taiwan) using their standard in vitro binding and functional assays (Supplementary Material S2). […] Negative values were considered to be an artifact arising from, for example, compounds interfering with the assay readout.
The radioligand displacement binding assays employed the gold standard filtration method using membrane preparations from stable cell lines (HEK-293 or CHO cells) expressing human or rodent target proteins to determine the interaction of the compounds with specific receptors, channels, and transporters. For this purpose, the competitive binding of test compounds against a [^125I]- [^3H]-, or [^35S]-labelled agonist and/or antagonist was determined. The specific list of radiolabeled ligands and experimental conditions are summarized in Supplementary Material S2.

[3] = molecular target: T1, α3β4 nAChR; test: nAChR functional assay, automated patch-clamp; format: cell-based
Method: The following selection antibiotics were used for the cell lines: G418 (0.25 mg/ml; Sigma-Aldrich) and Zeocin^TM (0.4 mg/ml; InvivoGen, San Diego, CA, United States) for α7/Ric3 nAChR and α3β4 nAChR cells; puromycin (8 μg/ml; InvivoGen) and hygromycin B (0.4 mg/ml; Gibco) for α4β2 nAChR cells; and G418 (0.5 mg/ml), puromycin (0.25 μg/ml), and hygromycin B (0.02 mg/ml) for α6/3β2/β3 nAChR cells. […] The human nAChRs were selected due to the lack of commercially available nAChR expression systems for mouse or zebrafish.
Data were analyzed using the Patchmaster software and corrected for leak current. The data acceptance criteria were as follows: seal resistance >100 MΩ; seal resistance loss variation <50%; access resistance <20 MΩ; and minimum current amplitude elicited by maximal effect concentration acetylcholine >50 pA. Offline data analysis was performed in OpenOffice™ (v4.1.2; The Apache Software Foundation, Wakefield, MA, United States). […] Igor Pro (v6.2.2.2; WaveMetrics, Lake Oswego, OR, United States) or Prism (v8.2.1) were used for assessing the concentration–response curves.

[4] = mean ± S.D., no effect = up to 33 μM

CN1CCC[C@H]1c1cccnc1 [Nicotine, (-)-Nicotine]
EC50 ([1]; hippocampal synaptosomes): 4.22 µM

C1=CCC(c2cccnc2)NC1 (racemic) [Anatabine, (±)-Anatabine]
IC50 [2]: 0.96 ± 0.2 µM
increase in norepinephrine release ([1]; at the higher doses): ~20%
EC50 [3, 4]: 70.6 ± 8.2 µM
% of the full receptor activity, α3β4 nAChR ([3]; preliminary, data not shown): ~40%

CN1C(=O)CC[C@H]1c1cccnc1 [Cotinine, (-)-cotinine]
binding for α3β4 nAChR [2]: undetectable
α3β4 nAChR EC50 in µM [3, 4]: no detectable activities; also recorded: No effect *
